Data as given in US12258337B2, “Bicyclic CX3CR1 receptor agonists” (Board of Regents, The University of Texas System, priority 2019, dated 2025).

Assays:
Type in all cases: cell-based
mCX3CR1 = biological target: T1, mCX3CR1 (Mus musculus, UniProt Q9Z0D9); assay: Ga16 assay, CX3CR1 agonism, Ca2+ sensitive photo-protein readout (FLIPRTETRA); settings: mouse CX3CR1 cell line
T1 construct: expressed in transfected cells; stably expresses a Ca2+ sensitive photo-protein
T1 sequence (Q9Z0D9 1-354): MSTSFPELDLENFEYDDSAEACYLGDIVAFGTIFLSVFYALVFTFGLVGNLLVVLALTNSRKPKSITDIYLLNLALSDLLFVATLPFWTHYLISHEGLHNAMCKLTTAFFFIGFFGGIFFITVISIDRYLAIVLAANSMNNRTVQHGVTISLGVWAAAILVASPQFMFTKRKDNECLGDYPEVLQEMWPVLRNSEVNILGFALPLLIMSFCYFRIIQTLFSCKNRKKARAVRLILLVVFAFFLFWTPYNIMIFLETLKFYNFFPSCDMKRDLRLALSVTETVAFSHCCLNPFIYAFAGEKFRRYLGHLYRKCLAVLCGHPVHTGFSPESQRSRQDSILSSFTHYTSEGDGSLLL
Description: (§1) Compounds (as well as stereoisomer(s) thereof and/or salt(s) thereof) were tested for CX3CR1 agonism in a cell based assay with fluorescent readout in Agonist Mode in dose response in quadruplicate with intra-plate modality).
(§2) Buffers and reagents. PBS (D-PBS without calcium and magnesium; EuroClone); Trypsin (Trypsin 0.05%, EDTA 0.02% in PBS; EuroClone); DMSO (Sigma); Standard tyrode buffer: in-house solution (130 mM NaCl, 5 mM KCl, 2 mM CaCl2), 1 mM MgCl2, 5 mM NaHCO3, 20 mM HEPES in water at pH 7.4; sterile filtered); Coelenterazine, native (Biosynth); stock 10 mM; Agonist: Recombinant Human Fractalkine (CX3CL1) (PeproTech); stock: 10 μM in standard tyrode buffer+BSA 0.1%; stored at −20° C.
(§3) Cell line. Human (hCX3CR1), mouse (mCX3CR1), and rat (rCX3CR1) were used for the assay.
(§4) Assay protocol. Experiments ere performed in 384 MTP format. Cells were seeded at 7,500 cells/well in 25 μl/well complete growth medium without selection antibiotics in 384-well plates. Twenty-four hours later, cells ere assayed for the response to various compounds using the Ca^2+ sensitive photo-protein stably expressed in the cells as readout.
(§5) The experiment was performed in a 384-well format according to the following procedure: • 24h after seeding, pre-incubate the cells at room temperature for 1 hour. • Then remove the culture medium. • Load cells with 20 μL/well of standard tyrode buffer+10 μM ceolenterazine. • Incubate cell plates for 3 hours at RT. • Inject 10 μL/w of 3× concentrated test compounds and controls in assay buffer at the FLIPRTETRA and monitor the kinetic response over a period of 90 seconds.
(§6) Data from FLIPRTETRA measurements were analyzed with the Genedata Screener© software. The following examples are meant to illustrate, but in no way to limit, the claimed invention.

rCX3CR1 = biological target: T2, rCX3CR1 (Rattus norvegicus, UniProt P35411); assay: as above; settings: rat CX3CR1 cell line
T2 construct: expressed in transfected cells; stably expresses a Ca2+ sensitive photo-protein
T2 sequence (P35411 1-354): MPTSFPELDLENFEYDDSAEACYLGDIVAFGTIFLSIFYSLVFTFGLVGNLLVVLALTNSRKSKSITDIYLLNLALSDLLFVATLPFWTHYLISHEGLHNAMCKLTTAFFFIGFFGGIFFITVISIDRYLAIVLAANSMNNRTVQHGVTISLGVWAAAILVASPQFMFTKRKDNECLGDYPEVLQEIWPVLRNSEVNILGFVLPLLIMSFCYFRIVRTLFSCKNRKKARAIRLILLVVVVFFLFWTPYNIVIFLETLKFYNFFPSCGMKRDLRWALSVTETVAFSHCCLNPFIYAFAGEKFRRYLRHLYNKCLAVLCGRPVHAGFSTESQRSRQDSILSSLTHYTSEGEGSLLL
Description: as §1, §2, §3, §4, §5, §6

hCX3CR1 [1] = biological target: T3, hCX3CR1 (Homo sapiens, UniProt P49238); assay: as above; parameters: expressed in transfected cells; stably expresses a Ca2+ sensitive photo-protein; settings: human CX3CR1 cell line
T3 sequence (P49238 1-355): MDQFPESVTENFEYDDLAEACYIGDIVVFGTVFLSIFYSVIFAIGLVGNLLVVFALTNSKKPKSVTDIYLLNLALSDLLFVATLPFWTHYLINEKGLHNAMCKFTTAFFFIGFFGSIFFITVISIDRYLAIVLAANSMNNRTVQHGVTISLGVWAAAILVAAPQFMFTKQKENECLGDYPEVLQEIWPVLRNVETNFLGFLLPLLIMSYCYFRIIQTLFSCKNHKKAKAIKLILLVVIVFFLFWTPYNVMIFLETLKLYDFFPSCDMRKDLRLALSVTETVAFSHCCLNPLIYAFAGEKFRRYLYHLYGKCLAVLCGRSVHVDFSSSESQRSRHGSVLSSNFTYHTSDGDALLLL
Description: as §1, §2, §3, §4, §5, §6

hCX3CR1 [2] = biological target: T3, hCX3CR1; assay: Suchi5 assay (HEK/NatClytin/CNG/Suchi5 transiently transfected hCX3CR1, Fluo-8 Ca2+ readout); parameters: expressed in transfected cells; stably expresses a Ca2+ sensitive photo-protein; settings: Suchi5 assay, HEK/NatClytin/CNG/Suchi5 transfected with hCX3CR1; read-out: hCX3CR1 agonism EC50
Description: Buffers and reagents. PBS (D-PBS without calcium and magnesium; EuroClone); Trypsin (Trypsin 0.05%, EDTA 0.02% in PBS; EuroClone); Opti-MEM medium (Thermo Fisher); DMSO (Sigma); Standard tyrode buffer: in-house solution (130 mM NaCl, 5 mM KCl, 2 mM CaCl2), 1 mM MgCl2, 5 mM NaHCO3, 20 mM HEPES in water at pH 7.4; sterile filtered); Screen Quest™ Fluo-8 No Wash Calcium Assay Kit (AAt Bioquest®); Lipofectamine® 2000 Reagent (Thermo Fisher); Agonist: Recombinant Human Fractalkine (CX3CL1) (PeproTech); stock: 10 μM in standard Tyrode buffer/BSA 01%; stored at −20° C.
Cell line. The final cell line for CX3CR1-Suchi5 assay is HEK/NatClytin/CNG/Suchi5 transiently transfected hCX3CR1 cDNA. In this cell line native Gαi signaling is switched to Gαq pathway thanks to the overexpression of a Gαiq chimeric G protein (called Suchi5) to direct Gαi activation towards Ca^2+ release for measurement.
Assay protocol. Experiments are performed in 384 MTP format. Transiently transfected cells are seeded at 20,000 cells/well in 25 μl/well Opti-MEM medium without selection antibiotics in 384-well plates. 4-5-hours later 25 μL/well of complete medium with 20% of FBS are added to the cells. Twenty-four hours later, cells are assayed for the response to various compounds using a fluorescent Ca^2+ sensitive dye (FLUO8-No Wash Dye) as readout.
The experiment is performed in a 384-well format according to the following procedure: • 24h after seeding, remove the culture medium. • Load cells with 20 μL/well of 0.5X FLUO-8 No Wash Dye diluted in assay buffer. • Incubate cell plates for 1 hour at RT. • Inject 10 μL/w of 3× concentrated test compounds and controls in assay buffer at the FLIPRTETRA and monitor the kinetic response over a period of 90 seconds.
Data from FLIPRTETRA measurements are analyzed with the Genedata Screener© software.

`O=C(NCC1(CN2CCCC2)CCCOC1)c1cc2c(s1)CCCCCC2` (stereo not shown) [Example 44, N-[[3-(pyrrolidin-1-ylmethyl)oxan-3-yl]methyl]-4,5,6,7,8,9-hexahydrocycloocta[b]thiophene-2-carboxamide] gave an EC50 (mCX3CR1) of 10.8 µM, an EC50 (rCX3CR1) of 8.4 µM and an EC50 (hCX3CR1 [1]) of 9.6 µM.
`CC(C)(CNC(=O)c1cc2c(s1)CCCCCC2)CN1CCCC(O)C1` (stereo not shown) [Example 46, N-[3-(3-hydroxypiperidin-1-yl)-2,2-dimethylpropyl]-4,5,6,7,8,9-hexahydrocycloocta[b]thiophene-2-carboxamide] showed an EC50 (mCX3CR1) of 52.8 µM, an EC50 (rCX3CR1) of 19.8 µM and an EC50 (hCX3CR1 [1]) of 10.9 µM. The EC50 (hCX3CR1 [2]) was 11.8 µM.
With `O=C(NCC1(CN2CCCC2)CC(F)(F)C1)c1cc2c(s1)CCCCCC2` [Example 57, N-[[3,3-difluoro-1-(pyrrolidin-1-ylmethyl)cyclobutyl]methyl]-4,5,6,7,8,9-hexahydrocycloocta[b]thiophene-2-carboxamide] the EC50 (mCX3CR1) was 30.1 µM, the EC50 (rCX3CR1) was 20.3 µM and the EC50 (hCX3CR1 [1]) was 15.3 µM. For the same molecule, the EC50 (hCX3CR1 [2]) was 15.6 µM.
For `CN(C)CC1(CNC(=O)c2cc3c(s2)CCCCCC3)CCOC1` (stereo not shown) [Example 38, N-[[3-[(dimethylamino)methyl]oxolan-3-yl]methyl]-4,5,6,7,8,9-hexahydrocycloocta[b]thiophene-2-carboxamide], the EC50 (mCX3CR1) was 15.8 µM, the EC50 (rCX3CR1) was 13.1 µM and the EC50 (hCX3CR1 [1]) was 10 µM.
In the case of `CC1CCCC1(CNC(=O)c1cc2c(s1)CCCCCC2)CN(C)C` (single isomer, unassigned) [Example 61, N-[[1-[(dimethylamino)methyl]-2-methylcyclopentyl]methyl]-4,5,6,7,8,9-hexahydrocycloocta[b]thiophene-2-carboxamide], the EC50 (mCX3CR1) is reported as 33.8 µM, the EC50 (rCX3CR1) is reported as 15.2 µM and the EC50 (hCX3CR1 [1]) is reported as 13.4 µM. The EC50 (hCX3CR1 [2]) was 6.8 µM.
Molecule `CN(C)CC1(CNC(=O)c2cc3c(s2)CCCCCC3)CCCOC1` (stereo not shown) [Example 37, N-[[3-[(dimethylamino)methyl]oxan-3-yl]methyl]-4,5,6,7,8,9-hexahydrocycloocta[b]thiophene-2-carboxamide] has an EC50 (mCX3CR1) of 15 µM, an EC50 (rCX3CR1) of 11.5 µM and an EC50 (hCX3CR1 [1]) of 12.2 µM.
`CC(C)(CNC(=O)c1cc2c(s1)CCCCCC2)CN1CCC(O)C(C)(C)C1` (stereo not shown) [Example 68, N-[3-(4-hydroxy-3,3-dimethylpiperidin-1-yl)-2,2-dimethylpropyl]-4,5,6,7,8,9-hexahydrocycloocta[b]thiophene-2-carboxamide] was tested, and the EC50 (mCX3CR1) was > 100 µM, the EC50 (rCX3CR1) was 63 µM and the EC50 (hCX3CR1 [1]) was 19.7 µM. For the same molecule, the EC50 (hCX3CR1 [2]) was 19.5 µM.
`O=C(NCC1(CN2CCC(O)CC2)CCOCC1)c1cc2c(s1)CCCCCC2` [Example 40, N-[[4-[(4-hydroxypiperidin-1-yl)methyl]oxan-4-yl]methyl]-4,5,6,7,8,9-hexahydrocycloocta[b]thiophene-2-carboxamide] showed an EC50 (mCX3CR1) of 83.8 µM, an EC50 (rCX3CR1) of 74.9 µM and an EC50 (hCX3CR1 [1]) of 20.8 µM.
For `CC1CCCC1(CNC(=O)c1cc2c(s1)CCCCCC2)CN(C)C` (single isomer, unassigned) [Example 60, N-[[1-[(dimethylamino)methyl]-2-methylcyclopentyl]methyl]-4,5,6,7,8,9-hexahydrocycloocta[b]thiophene-2-carboxamide], the EC50 (mCX3CR1) was 89.8 µM, the EC50 (rCX3CR1) was 18.9 µM and the EC50 (hCX3CR1 [1]) was 16.8 µM. It also gave an EC50 (hCX3CR1 [2]) of 10.3 µM.
In the case of `CC1(O)CCCN(CC2(CNC(=O)c3cc4c(s3)CCCCCC4)CCCC2)C1` (stereo not shown) [Example 52, N-[[1-[(3-hydroxy-3-methylpiperidin-1-yl)methyl]cyclopentyl]methyl]-4,5,6,7,8,9-hexahydrocycloocta[b]thiophene-2-carboxamide], the EC50 (mCX3CR1) is reported as 25.1 µM, the EC50 (rCX3CR1) is reported as 19.4 µM and the EC50 (hCX3CR1 [1]) is reported as 19.4 µM. For the same molecule, the EC50 (hCX3CR1 [2]) was 8.4 µM.
With `O=C(NCC1(CN2CCCC(O)C2)CCC1)c1cc2c(s1)CCCCCC2` (stereo not shown) [Example 65, N-[[1-[(3-hydroxypiperidin-1-yl)methyl]cyclobutyl]methyl]-4,5,6,7,8,9-hexahydrocycloocta[b]thiophene-2-carboxamide] the EC50 (mCX3CR1) was 9.2 µM, the EC50 (rCX3CR1) was 7.4 µM and the EC50 (hCX3CR1 [1]) was 6 µM. The EC50 (hCX3CR1 [2]) was 8.2 µM.
For `COCCOC1CCN(CC(C)(C)CNC(=O)c2cc3c(s2)CCCCCC3)CC1` [Example 42, N-[3-[4-(2-methoxyethoxy)piperidin-1-yl]-2,2-dimethylpropyl]-4,5,6,7,8,9-hexahydrocycloocta[b]thiophene-2-carboxamide], the EC50 (mCX3CR1) was > 100 µM, the EC50 (rCX3CR1) was 81.4 µM and the EC50 (hCX3CR1 [1]) was 22.6 µM.
For `O=C(NCC1(CN2CCC2)CCOCC1)c1cc2c(s1)CCCCCC2` [Example 35, N-[[4-(azetidin-1-ylmethyl)oxan-4-yl]methyl]-4,5,6,7,8,9-hexahydrocycloocta[b]thiophene-2-carboxamide], the EC50 (mCX3CR1) was 18 µM, the EC50 (rCX3CR1) was 12.1 µM and the EC50 (hCX3CR1 [1]) was 12.8 µM.
Molecule `O=C(NCC1(CN2CCCC2)CCOC1)c1cc2c(s1)CCCCCC2` (stereo not shown) [Example 39, N-[[3-(pyrrolidin-1-ylmethyl)oxolan-3-yl]methyl]-4,5,6,7,8,9-hexahydrocycloocta[b]thiophene-2-carboxamide] has an EC50 (mCX3CR1) of 9.6 µM, an EC50 (rCX3CR1) of 10.9 µM and an EC50 (hCX3CR1 [1]) of 11.1 µM.
For `O=C(NCC1(CN2CCC2)CCC1)c1cc2c(s1)CCCCCC2` [Example 36, N-[[1-(azetidin-1-ylmethyl)cyclobutyl]methyl]-4,5,6,7,8,9-hexahydrocycloocta[b]thiophene-2-carboxamide], the EC50 (mCX3CR1) was > 100 µM, the EC50 (rCX3CR1) was > 100 µM and the EC50 (hCX3CR1 [1]) was 9.1 µM.
